Where two headings read alike, the source gives them in different places.
How the values were obtained:
Leukemia L1210 [1] = test: Activity against Leukemia L1210, intraperitoneal, increase in life span of mice; format: in vivo, female mice (BDF1 family); details: for Survivors after 60 days / Max. ILS % / Therapeutic ratio TR: ip; for Survivors after 60 days: 6-membered group; for Max. ILS %: 60-day observation, versus control; for Therapeutic ratio TR: O.D./ILS30; for ED (maximum ILS) / ED30: Mus musculus, L1210, ip; for ED (maximum ILS): read-out: O.D. (optimum dosage); for ED30: read-out: ILS30
Procedure, shortened: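 L1210 cells (1×10^5) into abdominal cavity of female BDF1 mice, 20–23 g, n=6/group. Dosing 24 h post-implant, ip or po, qd ×5. 60-day observation; ILS% = mean survival vs untreated control; T.R. = O.D./ILS 30.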

Leukemia L1210 [2] = test: Activity against Leukemia L1210, oral, increase in life span of mice; format: in vivo, female mice (BDF1 family); details: for Survivors after 60 days / Max. ILS % / Therapeutic ratio TR: oral; for Survivors after 60 days: 6-membered group; for Max. ILS %: 60-day observation, versus control; for Therapeutic ratio TR: O.D./ILS30; for ED (maximum ILS) / ED30: Mus musculus, L1210; for ED (maximum ILS): read-out: O.D. (optimum dosage); for ED30: read-out: ILS30
Procedure: Tests were conducted in accordance with the method for measuring antitumor activity of National Cancer Center Tokyo (A, Hoshi et al, Farumashia 9 464 (1973)). Test compounds were each intraperitoneally (referred to as ip) or orally (referred to as op) administered once a day for 5 successive days to a 6-membered group of femal mice (BDF1 family, each weighing 20 to 23 g) 24 hours after 1×10^5 cells of Leukemia L1210 have been implantated into the abdominal cavities of the mice, and the effect was evaluated by comparing the survival days of treated groups with those of an untreated group of mice (control group) in 60-day observation. An increase percentage of life span (ILS%) was calculated from said average survival days compared with those of the control group. Further, therapeutic ratio (O.D./ILD30, referred to as T.R.) of each tested compound was calculated from the daily dosage of the compound necessary to increase said average survival days by 30% as compared with the control group (this dosage is referred to as ILS 30) and the daily dosage giving a maximum increase of life span to mice implantated with L1210 cells, namely an optimum dosage (referred to as O.D.). The results of five successive days intraperitoneal administrations of test compounds were shown in Tables I to III, and those of five successive oral administrations in Table IV.

Ehrlich acites carcinoma = test: Growth-inhibiting effect against Ehrlich acites carcinoma; format: in vivo, male mice; details: 5 days; for response vs control in vivo at 3.2 mg/kg: 3.2 mg/kg/day ip; for response vs control in vivo at 6.3 mg/kg: 6.3 mg/kg/day ip
Procedure, shortened: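 Activity graded from T/C% of total packed ascites cell volume on day 7 (treated vs untreated): - 100-66, + 65-41, ++ 40-11, +++ 10-0. Groups of 6 male mice bore 1×10^7 i.p.-implanted cells and received compound (1% Nikkol HCO-60) i.p. daily for 5 days from 24 hrs after implantation.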

[3] = Acute toxicity (LD50, Behrens-Karber method); format: in vivo, ICR mice; details: ip, mortality during 30 days; for LD50 at 720 h: mouse, in vivo
Procedure: Test compounds, dissolved or suspended in 0.5% aqueous CMC, were each intraperitoneally administered to ICR mice in a dose of 0.1 ml per 10 g body weight. LD50 (mg/kg) value of each test compound was calculated from the mortality of mice during 30 days by the Behrens-Karber method.

[4] = ip once a day for 5 successive days, daily dosage giving maximum increase of life span
[5] = ip once a day for 5 successive days, daily dosage increasing average survival days by 30%
[6] = oral once a day for 5 successive days, daily dosage giving maximum increase of life span
[7] = oral once a day for 5 successive days, daily dosage increasing average survival days by 30%
[8] = Mus musculus, Ehrlich, 120 h, read-out: Activity
[9] = Mus musculus, Ehrlich, 120 h, read-out: T/C %

Compound | Survivors after 60 days (Leukemia L1210 [1]) | Max. ILS % (Leukemia L1210 [1]) [%] | Therapeutic ratio TR (Leukemia L1210 [1]) | Survivors after 60 days (Leukemia L1210 [2]) | Max. ILS % (Leukemia L1210 [2]) [%] | Therapeutic ratio TR (Leukemia L1210 [2]) | ED (maximum ILS) (Leukemia L1210 [1]; [4]) [mg/kg] | ED30 (Leukemia L1210 [1]; [5]) [mg/kg] | ED (maximum ILS) (Leukemia L1210 [2]; [6]) [mg/kg] | ED30 (Leukemia L1210 [2]; [7]) [mg/kg] | LD50 at 720 h [3] [mg/kg] | also measured
3-tert-butyl-3-(methoxy-2-n-butyl β-D-glucopyranose-6-yl)-1-(2-chloroethyl)-1-nitrosourea [Compound 178] | 6/6 | > 700 | 66.5 | 5/6 | > 625 | 22.4 |  |  |  |  |  | O.D. (optimum dosage) (Leukemia L1210 [1]; [4]): 180 mg/kg; ILS30 (Leukemia L1210 [1]; [5]): 2.71 mg/kg; O.D. (optimum dosage) (Leukemia L1210 [2]; [6]): 210 mg/kg; ILS30 (Leukemia L1210 [2]; [7]): 9.38 mg/kg; Activity (Ehrlich acites carcinoma; 25 mg/kg/day ip): +++ (T/C% 10-0); T/C % (Ehrlich acites carcinoma; 25 mg/kg/day ip): 0%; Activity (Ehrlich acites carcinoma; 100 mg/kg/day ip): +++ (T/C% 10-0); T/C % (Ehrlich acites carcinoma; 100 mg/kg/day ip): 0%; LD50 [3]: 570 mg/kg
CO[C@H]1O[C@H](CNC(=O)N(CCCl)N=O)[C@@H](O)[C@H](O)[C@H]1O [Compound 6MCαG, 3-(methyl α-D-glucopyranose-6-yl)-1-(2-chloroethyl)-1-nitrosourea, reference compound] | 6/6 | > 700 | 25.5 | 6/6 | > 700 | 6.86 | 13.5 | 0.53 | 16.8 | 2.45 | 40 | Activity (toxicity in words) (Ehrlich acites carcinoma; 12.5 mg/kg/day ip): Toxic (2/6); response vs control in vivo at 3.2 mg/kg (Ehrlich acites carcinoma; [8]): 0 to 10%; response vs control in vivo at 3.2 mg/kg (Ehrlich acites carcinoma; [9]): 0%; response vs control in vivo at 6.3 mg/kg (Ehrlich acites carcinoma; [8]): 0 to 10%; response vs control in vivo at 6.3 mg/kg (Ehrlich acites carcinoma; [9]): 0%; response vs control in vivo at 12.5 mg/kg (Ehrlich acites carcinoma; Mus musculus, Ehrlich, 120 h, 12.5 mg/kg/day ip, read-out: T/C %): 0%
CC(C)CO[C@H]1O[C@H](CN(CC(C)(C)C)C(=O)N(CCCl)N=O)[C@@H](O)[C@H](O)[C@H]1O [Compound 183, 3-neopentyl-3-(isobutyl α-D-glucopyranose-6-yl)-1-(2-chloroethyl)-1-nitrosourea] | 6/6 | > 700 | 56.4 | 4/6 | > 460 | 15.2 | 170 | 3.01 | 200 | 13.2 | 520 | 
CCC(COC)O[C@H]1O[C@H](CN(CC(C)(C)C)C(=O)N(CCCl)N=O)[C@@H](O)[C@H](O)[C@H]1O (stereo partly drawn) [Compound 185, 3-neopentyl-3-(1-methoxy-2-n-butyl α-D-glucopyranose-6-yl)-1-(2-chloroethyl)-1-nitrosourea] | 6/6 | > 700 | 63.1 | 5/6 | > 625 | 24.5 | 170 | 2.69 | 200 | 8.16 | 550 | 
COCCCO[C@H]1O[C@H](CN(CC(C)(C)C)C(=O)N(CCCl)N=O)[C@@H](O)[C@H](O)[C@H]1O [Compound 186, 3-neopentyl-3-(3-methoxy-n-propyl α-D-glucopyranose-6-yl)-1-(2-chloroethyl)-1-nitrosourea] | 6/6 | > 700 | 64.3 | 5/6 | > 620 | 23.4 | 160 | 2.49 | 200 | 8.55 | 520 | 
CCOCCO[C@H]1O[C@H](CO)[C@@H](O)[C@H](O)[C@H]1N(CCC(C)(C)C)C(=O)N(CCCl)N=O [Compound 192, 3-(3,3-dimethyl-n-butyl)-3-(2-ethoxyethyl α-D-glucopyranose-2-yl)-1-(2-chloroethyl)-1-nitrosourea] | 6/6 | > 700 | 58.4 | 5/6 | > 625 | 20.3 | 160 | 2.74 | 200 | 9.85 | 515 | 
COCCOCCO[C@H]1O[C@H](CN(C(=O)N(CCCl)N=O)C(C)(C)C)[C@@H](O)[C@H](O)[C@H]1O [Compound 197] | 6/6 | > 700 | 59.2 | 5/6 | > 625 | 21.6 | 160 | 2.7 | 200 | 9.26 | 530 | 
COC(C)CCO[C@H]1O[C@H](CN(C(=O)N(CCCl)N=O)C(C)(C)C)[C@@H](O)[C@H](O)[C@H]1O (stereo partly drawn) [Compound 198, 3-tert-butyl-3-(3-methoxy-n-butyl α-D-glucopyranose-6-yl)-1-(2-chloroethyl)-1-ntirosourea] | 6/6 | > 700 | 65.3 | 5/6 | > 640 | 22.7 | 180 | 2.76 | 220 | 9.69 | 570 | 
O=NN(CCCl)C(=O)N[C@H]1C(O)O[C@H](CO)[C@@H](O)[C@@H]1O (some centres unmarked) [DCNU, reference compound] | 5/6 | > 625 | 8.9 | 0/6 | 20 |  | 6.2 | 0.7 | 100 |  | 39 | 
